Data from US9896448B2, “Pyrimido[4,5-b]quinoline-4,5(3H, 10H)-dione derivatives” (Novartis AG, priority 2014, dated 2018).

Legend:
[1] = tested on: CFTR-Y122X; test: CFTR-Y122X assay (dual reporter Hek293 cell lines, Renilla luminescence readthrough); assay type: cell-based, human; details: for Emax / AC50: nonsense mutation suppression, 24 h incubation, tested up to 100 μM; for Emax: 100% = 14 mM paromomycin, read-out: Amax; for AC50: Renilla luminescence
Description: In particular, compounds of formula (I) act as nonsense mutation suppressors on frequent PTCs, e.g. on Y122X in the mRNA of the cystic fibrosis conductance regulator protein (CFTR). This can be determined in vitro, for example, using cell lines expressing GFP-CFTR-Y122X-Renilla constructs as described herein.
Activity of compounds of the present invention was examined in recombinant, dual reporter isogenic Hek293 cell lines (“CFTR-Y122X assay”). The engineered reporter constructs contained the 18 bp sequence strech corresponding to a common Y122X PTC mutation in CFTR class I mutant patients (see Sermet-Gaudelus, BMC Medicine, 2007, 5(5)). Instead of a tyrosine (Y) in position 122 of the CFTR protein a TGA stop codon interrupts the open reading frame (Y122X) of the corresponding mRNA. This TGA stop codon triplet (followed by the pyrimidine base cytosine) is permissive to aminoglycoside mediated translational readthrough which served as positive control for high throughput screening. A corresponding TAA stop codon variant and a wildtype non mutated construct was used for confirmation and counter screening. The CFTR sequence was sandwitched between an eGFP reporter, and a triple myc tag sequence fused to a full length Renilla reporter. All sequences, including an intron containing one positioned pre-eGFP (b-globin intron) were cloned in frame. The corresponding expression constructs were stably expressed in the isogenic HEK-R4 cell host (Invitrogen Incorp.) and selected by blasticidin resistance. The isogenic integration of the construct minimizes gene dose effects and improves assay reproducibility. Stably integrated single cell derived clones were selected and characterized for aminoglycoside mediated readthrough. […] Readthrough of Y122X accumulates an intracellular localized fusion protein approximately 65.5 kDa in size as controlled by western blot analysis and immunofluorescence using an anti-renilla antibody. The eGFP reporter pre-PTC mutation serves as visual control for genetic stability of the screening clones and minimizes protein degradation of small fusion protein amounts. In the assay, compound concentration was 10 μM. In miniaturized 1536 well format 2000 cells were dispensed in 4 μl/well and incubated for 24 h at 37° C., 5% CO2. 40 nl compounds were placed on the cells with control wells containing 1 ul Paramomycin and 14.4 mM final concentration. Compounds were incubated for 24 h. Renilla Glo substrate (2.5 ul) was added and plates were centrifuged and processed for luminescence measurement using various readers. Activity calculation was done using the equation: A1(%)=100*(S−NC)/(AC−NC) where AC, NC and S correspond to active controls (injection of Stimulation buffer=100% stimulation), neutral controls (buffer injection which […]) and screening samples (S). NC corresponds to 0% activity whereas AC is 100% activity (14 mM paromomycin). False positive artefacts were removed in confirmation and validation screening using the same assay format followed by counterscreening using the respective wildtype construct (w/o PTC mutation) cell model. Compounds were tested up to 100 μM compound concentration.

[2] = tested on: alpha-L-Iduronidase W402X in Hurler patient derived fibroblast cells; test: Hurler patient derived fibroblast cell cultures: restored alpha-L-iduronidase activity (W402X readthrough); assay type: cell-based; details: Homo sapiens, 192 h, 8 days incubation, highest concentration 20 uM; for Emax: 100% = 14 mM paromomycin, read-out: Amax
Description: Activity of compounds of the present invention was examined in patient derived fibroblast cells. The genotyped cells were derived from the Coriell Institute (#GM00798) and contain an in frame homozygous TGG to TAG change at nucleotide 1293 of exon 9 which results in a W402X mutation. The W402X mutation is one of the most common Hurler syndromes causing loss of function mutation. Between 60-70% of genotyped patients contain either the Q70X and/or the W402X in mutation and are classified as severe MPSI patients. This TAG stop codon triplet is permissive to aminoglycoside mediated translational readthrough which served as activity control for compound testing. Readthrough of W402X restores alpha-L-Iduronidase activity which results in removal of lysosomal accumulated Glycosaminoglycan's. Iduronidase expression could neither be detected by Taqman PCR© nor by enzyme activity or ELISA methods without compound stimulation. Compounds were tested in concentration response mode. Therefore 5000 patient cells/40 ul/well in 384 well plates were used. Compound dilutions were derived from freshly prepared 10 mM compound stock solutions. Highest concentration was 20 uM and subsequently diluted 1: 3.16 (8 point dilutions, n=4). Final DMSO concentration was below 0.5% and tested to be without effect on cell viability, growth and readthrough. Cells were incubated for 8 days with one cell media and compound exchange at day 3. Thereafter cell media was removed and cells were lysed (0.4 M Sodiumformate, 0.1% NaN3, 0.9% NaCl, 0.2% Triton, pH 3.5). Restored alpha-L-iduronidase activity in cell lysates was measured with the fluorescent 4-MU iduronide substrate (5 ul of 0.4 mM 4 Methylumbelliferyl alpha-L-iduronide/well) after 48 h incubation. Paromomycin was used as reference control (14 mM=100% control).

What does the source list for `CCCc1nc2c(c(=O)c3ccccc3n2C)c(=O)n1-c1ccccn1` [Example 1.2, 10-methyl-2-propyl-3-(pyridin-2-yl)pyrimido[4,5-b]quinoline-4,5(3H,10H)-dione]?
Emax ([1]; Homo sapiens, HEK293): 235%; AC50 ([1]; Homo sapiens, HEK293): 18 µM; Emax [2]: 1%

What does the source list for `CC(C)c1nc2c(c(=O)c3ccccc3n2C)c(=O)n1-c1ccn(C)n1` [Example 1.4, 2-isopropyl-10-methyl-3-(1-methyl-1H-pyrazol-3-yl)pyrimido[4,5-b]quinoline-4,5(3H,10H)-dione]?
Emax ([1]; Homo sapiens, HEK293): 133%; AC50 ([1]; Homo sapiens, HEK293): 13.6 µM; Emax [2]: 21%

`CC(C)c1nc2c(c(=O)c3ccccc3n2C)c(=O)n1-c1ccnn1C` [2-isopropyl-10-methyl-3-(1-methyl-1H-pyrazol-5-yl)pyrimido[4,5-b]quinoline-4,5(3H,10H)-dione] was tested. Which “suppression, % of paromomycin reference activity” value ([1]; at the above dose ranges (up to 100 μM), paromomycin reference = 100%) did it give?
The value was “less than 5%”.

`Cn1c2ccccc2c(=O)c2c(=O)n(-c3ccccn3)c(C3CCC3)nc21` [Example 1.8, 2-cyclobutyl-10-methyl-3-(pyridin-2-yl)pyrimido[4,5-b]quinoline-4,5(3H,10H)-dione] was tested. Which Emax ([1]; Homo sapiens, HEK293) did it give?
Its Emax is 271%.

What about the AC50 ([1]; Homo sapiens, HEK293) of the same compound?
Its AC50 is 4.8 µM.

What about the Emax [2] of the same compound?
Its Emax is 184%.

And the AC50 ([2]; 8 point dilutions)?
Its AC50 is 9.9 µM.

How did the Emax ([1]; Homo sapiens, HEK293) turn out when `CCCc1nc2c(c(=O)c3ccccc3n2C)c(=O)n1-c1ccn(C)n1` [Example 1.3, 10-methyl-3-(1-methyl-1H-pyrazol-3-yl)-2-propylpyrimido[4,5-b]quinoline-4,5(3H,10H)-dione] was run?
The Emax was 202%.

What about the AC50 ([1]; Homo sapiens, HEK293) of the same compound?
The AC50 was 31.8 µM.

And the Emax [2]?
Its Emax is 8%.

For `CC(C)c1nc2c(c(=O)c3ccccc3n2C)c(=O)n1-c1ccncc1` [Example 1.6, 2-isopropyl-10-methyl-3-(pyridin-4-yl)pyrimido[4,5-b]quinoline-4,5(3H,10H)-dione], which Emax ([1]; Homo sapiens, HEK293) is on record?
Its Emax is 14.9%.

What about the AC50 ([1]; Homo sapiens, HEK293) of the same compound?
The AC50 was 2.9 µM.

And the Emax [2]?
Its Emax is 5%.

`NC[C@@H]1O[C@H](O[C@H]2[C@@H](O)[C@H](O[C@@H]3[C@@H](O)[C@H](N)C[C@H](N)[C@H]3O[C@H]3O[C@H](CO)[C@@H](O)[C@H](O)[C@H]3N)O[C@@H]2CO)[C@H](N)[C@@H](O)[C@@H]1O` [paromomycin, reference compound] was tested. Which EC50 ([1]; Homo sapiens, HEK293, clone selected for HTS assay development, read-out: EC50 (response of selected clone to aminoglycoside mediated readthrough)) did it give?
The EC50 was 1.5 mM.

For `CC(C)c1nc2c(c(=O)c3ccccc3n2C)c(=O)n1-c1ccccn1` [Example 1.7, 2-isopropyl-10-methyl-3-(pyridin-2-yl)pyrimido[4,5-b]quinoline-4,5(3H,10H)-dione], which Emax ([1]; Homo sapiens, HEK293) is on record?
Its Emax is 164%.

What about the AC50 ([1]; Homo sapiens, HEK293) of the same compound?
Its AC50 is 11.7 µM.

What about the Emax [2] of the same compound?
Its Emax is 11%.

How did the Emax ([1]; Homo sapiens, HEK293) turn out when `CC(C)c1nc2c(c(=O)c3ccccc3n2C)c(=O)n1-c1ccsc1` [Example 1.5, 2-isopropyl-10-methyl-3-(thiophen-3-yl)pyrimido[4,5-b]quinoline-4,5(3H,10H)-dione] was run?
The Emax was 128%.

And the AC50 ([1]; Homo sapiens, HEK293)?
The AC50 was 12.3 µM.

What about the Emax [2] of the same compound?
Its Emax is 5%.

What does the source list for `CC(C)c1nc2c(c(=O)c3ccccc3n2C)c(=O)n1-c1cc[nH]n1` [Example 1.1, 2-isopropyl-10-methyl-3-(1H-pyrazol-3-yl)pyrimido[4,5-b]quinoline-4,5(3H,10H)-dione]?
Emax ([1]; Homo sapiens, HEK293): 14.8%; AC50 ([1]; Homo sapiens, HEK293): 6.7 µM; Emax [2]: 7%
